Assay results reported in publication PMC7040082 (Journal of Pharmacokinetics and Pharmacodynamics, 2019).
Several values for one entry are separate records, joined by “and”; a condition that tells them apart may be missing. Equal entries are not always repeated. Where two headings read alike, the source gives them in different places.

Experiments:
[1] = dog, in vivo; cited from earlier work
[2] = in vivo; cited from earlier work
[3] = for β (PD scale parameter, first arrival time of drug): constrained to 25-30 s; for AUC for CGPC(t) as percent of dose eliminated, 72h-∞: late-time 72 h to ∞ (drug mass remaining at 72 h); for AUC for CGPC(t) as percent of dose eliminated, 1/3-72h: sample-times 20 min to 72 h
[4] = all samples 20 min to 72 h; ref [1]; cited from earlier work
[5] = cited from earlier work; for urinary metformin recovery: human, at 60 to 72 h
in vivo = details: both, mixed-breed, dog, serum, iv, mean of seven dogs
[6] = Noncompartmental (NC) analysis of IV bolus serum concentrations in dogs
[7] = GPC fit, single IV bolus, individual dogs (Dog 1-7)
[8] = GPC fit, single IV bolus, mean of seven dogs

For `Nc1ccc(C(=O)NCC(=O)O)cc1` [PAH, p-aminohippurate], the CLPAH renal clearance [1] is given as 13.51 mlmin^-1kg^-1, the “EPAH arteriovenous extraction ratio” value [1] is given as 0.7564 and the “nominal canine EPAH” value [1] is given as 75.6%. The EPAH in humans [2] was “circa 90%”.
With `CN(C)C(=N)N=C(N)N` [metformin, 1,1-dimethylbiguanide] the “AUC for CGPC(t) as percent of dose eliminated, 0-72h” value ([3]; 0 to 72 h (model renal excreted), mean of seven dogs) was 78.9%, the “AUC for CGPC(t) as percent of dose eliminated, 0-72h” value ([3]; 0 to 72 h, individual dogs 1-7) was 91.3% and 71.6% and 84.4% and 79.7% and 67.0% and 82.6% and 75.9% and the “β (PD scale parameter, first arrival time of drug)” value ([3]; GPC fit, individual dogs (Dog 1-7)) was 30 s and 25 s. For the same compound, the “β (PD scale parameter, first arrival time of drug)” value ([3]; GPC fit, mean of seven dogs) was 26 s, the CL [3, 7] was 11.4 ml/minkg and 14.7 ml/minkg and 9.8 ml/minkg and 11.5 ml/minkg and 26.7 ml/minkg and 19.4 ml/minkg and 12.4 ml/minkg and the “Peak (time at the maximum of the GPC model)” value [3, 7] was 1.34 min and 4.85 min and 0.66 min and 6.17 min and 2.21 min and 1.70 min. For the same compound, the “a (GD shape parameter)” value [3, 7] was 0.5194 and 0.7629 and 0.3493 and 0.8112 and 0.6689 and 0.6092 and 0.6435, the “b (GD rate parameter)” value [3, 7] was 0.6137 per h and 1.0518 per h and 0.7318 per h and 0.9993 per h and 0.9107 per h and 0.8062 per h and 1.1035 per h and the “α (PD shape parameter)” value [3, 7] was 0.1929 and 0.1571 and 0.2644 and 0.1365 and 0.2010 and 0.1726 and 0.1199. The “Peak (time at the maximum of the GPC model)” value [3, 8] was 2.73 min, the “a (GD shape parameter)” value [3, 8] was 0.6235 and the “b (GD rate parameter)” value [3, 8] was 0.8882 per h. The “α (PD shape parameter)” value [3, 8] was 0.1778, the “CL as percent of estimated total renal plasma flow (RPF)” value ([3]; GPC model mean CL, RPF≈17.86 mlmin^-1kg^-1 from PAH meta-analysis) was 84.8% and the “CL GPC” value ([3]; GPC model, individual dogs 1-7) was 14.7 mlmin^-1kg^-1 and 9.8 mlmin^-1kg^-1 and 11.5 mlmin^-1kg^-1 and 26.7 mlmin^-1kg^-1 and 19.4 mlmin^-1kg^-1 and 12.4 mlmin^-1kg^-1 and 11.4 mlmin^-1kg^-1. For the same compound, the “early concentration peak, total elapsed time” value ([3]; GPC models, range of seven dogs) was 0.66 to 6.17 min, the “CL as percent of RPF using geometric means” value ([3]; GPC, GM EPAH of 35 controls) was 84.7% and the “decrease of drug mass in the body from the initial dose” value ([3]; at 72 h, […] remaining) was 5 fold. The “AUC for CGPC(t) as percent of dose eliminated, 72h-∞” value ([3]; individual dogs 1-7) was 8.7% and 28.4% and 15.6% and 20.3% and 33.0% and 17.4% and 24.1%, the “AUC for CGPC(t) as percent of dose eliminated, 72h-∞” value ([3]; mean of seven dogs) was 21.1% and the “decrease of serum concentration from estimated peak concentration” value ([3]; over 72 h) was 1000 fold. The “AUC for CGPC(t) as percent of dose eliminated, 1/3-72h” value ([3]; individual dogs 1-7) was 53.1% and 58.7% and 63.7% and 60.5% and 50.8% and 62.0%, the “AUC for CGPC(t) as percent of dose eliminated, 1/3-72h” value ([3]; mean of seven dogs) was 58.5% and the “range of serum sample concentrations” value [4] was 9.78 to 19,100 ng/ml. For the same compound, the “urine recovery from IV metformin” value ([5]; 48 h, may have been inflated, ref Pentikäinen et al. [21]) was 99.9%, the urinary metformin recovery ([5]; ref Table 1 of [19]) was 86% and the urinary metformin recovery ([5]; ref Table II of [20]) was 78.9%. For the same compound, the AUC (in vivo; AUC, GPC fit, single IV bolus) was 23600 ng·h/mL, the clearance (in vivo; CL GPC, GPC model) was 15.1 mL/min/kg and the clearance (in vivo; CL, GPC fit, single IV bolus) was 15.1 mL/min/kg. For the same compound, the AUC (E2 fit, single IV bolus, mean of seven dogs) was 15.8 mgh/L, the “p1 (fraction of AUC from first exponential term)” value (E2 fit, mean of seven dogs) was 79.3% and the “p2 (fraction of AUC from second exponential term)” value (E2 fit, mean of seven dogs) was 20.7%. For the same compound, the λ1 (E2 fit, mean of seven dogs) was 0.721 h⁻¹, the λ2 (E2 fit, mean of seven dogs) was 0.0490 h⁻¹ and the “CL as percent of expected RPF” value (E2 mean CL, RPF≈17.86 mlmin^-1kg^-1) was 123.7%. For the same compound, the “CL E2” value (biexponential model, mean of seven dogs) was 22.1 mlmin^-1kg^-1, the “E2 CL-value greater than GPC CL-value” (dog 6) was 41% and the “CL as percent of expected RPF” value ([6]; NC mean CL, RPF≈17.86 mlmin^-1kg^-1) was 104.7%. For the same compound, the “NC CL-value greater than GPC CL-value” ([6]; dog 6) was 25%.
